In patent US20150031102A1, “METHODS AND COMPOSITIONS FOR ENHANCED PRODUCTION OF BUTANOL BY CLOSTRIDIA” (Butrolix LLC, priority 2012, published 2015):

Tested on: Clostridium acetobutylicum strain ATCC 824
Experiment: Sequential batch transfer in 24-well culture plates (butanol, residual glucose, butanol yield and productivity)
Format: cell-based
Settings: for Residual glucose concentration: initial glucose 60 g/L
Protocol: Each well contained 1.5 mL of growth medium. Peptide was added to each well at the indicated concentration (0, 25, 50, and 100 nM). Every 24 hours fresh medium and peptide treatment were added to a new column of wells then 1.5 μL of the previous day culture was transferred to the new well. Wells were harvested for glucose and butanol analysis after 96 hours of growth. Transfers 1, 4, 7, 10, 13, 16, […].
Briefly, Clostridium spores were germinated in a suitable growth medium for 18-24 hours then […] was transferred to 1.5 mL of fresh medium in each of four wells on a 24-well culture plate. Three of the wells had been treated with 25 nM, 50 nM and 100 nM of peptide, respectively while the fourth well was untreated. Thereafter, every 24 hours […] of each subculture was transferred to 1.5 mL of fresh medium that contained the same peptide treatment or no treatment. Transfers of successive subcultures were done for 24 days, and each subculture was grown for 96 hours before being harvested. Culture supernatants were recovered following centrifugation and were analyzed for butanol and residual glucose concentrations. Determination of optimum peptide treatment levels was based on a graphical comparison of the concentration of butanol in each of the four culture wells for sequential transfers 1, 4, 7, 10, 13, 16, 19, 22 and 24.
Clostridium acetobutylicum strain ATCC 824 was used in all experiments and the growth medium used for sequential batch transfer, time course, and continuous culture experiments contained yeast extract, casamino acids, L-cysteine, L-asparagine, phosphate buffer, trace minerals, and 6% glucose. What are believed to be quorum-sensing peptides that were used in the experiments were chemically synthesized peptides SEQ ID NO: 143 (amino acid sequence: SYPGWSW) and SEQ ID NO: 144 (amino acid sequence: ILILISG). Routine growth of the bacteria as well as the sequential batch and time course experiments were conducted in a Form a Scientific Model 1029 anaerobic gas chamber at 32° C. Continuous cultures were performed at 32° C. using duplicate New Brunswick Scientific BioFlo 3000 apparati with a dilution rate of 0.01 volume per hour, 75 rpm agitation, and nitrogen gas sparging. Optical density of culture samples was measured at 600 nm in a Beckman DU 600 series spectrophotometer and glucose was analyzed using a YSI Model 2700 Select Biochemistry Analyzer with internal glucose calibration. Butanol concentrations were determined by measuring experimental and standard samples using a Varian Saturn 3 Gas Chromatograph/Mass Spectrometer and calculating butanol concentrations using standard curves.
(§1) Sequential batch transfer experiments were carried out in 24-well culture plates that contained 1.5 mL of medium per well. Peptide was added to each well at the indicated concentrations of 0 nM (control), 25 nM, 50 nM, or 100 nM. Every 24 hours, fresh medium and peptide treatments were added to a new column of wells. Then, 1.5 uL of the previous day culture was transferred to the new well. Wells were harvested for glucose and butanol analysis after 96 hours of growth; transfers 1, 4, 7, 10, 13, 16, 19, 22, and 24 were analyzed. Two representative experiments are shown in Tables 30 and 31 and FIGS. 14 and 15.
as §1, with “32” for “30”, “33” for “31”, “16” for “14”, “17.” for “15.”

[1] = 50 nM peptide, transfer 19, after 96 hours of culture, Expt. 1
[2] = 50 nM peptide, transfer 22, after 96 hours of culture, Expt. 1
[3] = 50 nM peptide, transfer 24, after 96 hours of culture, Expt. 1
[4] = 100 nM peptide, transfer 1, after 96 hours of culture, Expt. 1
[5] = 100 nM peptide, transfer 4, after 96 hours of culture, Expt. 1
[6] = 100 nM peptide, transfer 7, after 96 hours of culture, Expt. 1
[7] = 100 nM peptide, transfer 10, after 96 hours of culture, Expt. 1
[8] = 100 nM peptide, transfer 13, after 96 hours of culture, Expt. 1
[9] = 100 nM peptide, transfer 16, after 96 hours of culture, Expt. 1
[10] = 100 nM peptide, transfer 19, after 96 hours of culture, Expt. 1
[11] = 100 nM peptide, transfer 22, after 96 hours of culture, Expt. 1
[12] = 100 nM peptide, transfer 24, after 96 hours of culture, Expt. 1
[13] = BP1106213 first experiment, 25 nM, transfer 10

ILILISG (Derived from Clostridium acetobutylicum SEQ ID NO: 110) [peptide SEQ ID NO: 144]
Butanol concentration [1]: 8.40 g/L
Butanol productivity [1]: 0.09 g butanol/L-h
Butanol yield [1]: 0.14 g butanol/g/glucose
Butanol concentration (50 nM peptide, transfer 19, after 96 hours of culture, Expt. 2 (repeat), Table 58): 4.66 g/L
Residual glucose concentration [1]: 0.0 g/L
Residual glucose concentration (50 nM peptide, transfer 19, after 96 hours of culture, Expt. 2 (repeat), Table 45): 49.2 g/L
Butanol concentration [2]: 14.14 g/L
Butanol productivity [2]: 0.15 g butanol/L-h
Butanol yield [2]: 0.23 g butanol/g/glucose
Butanol concentration (50 nM peptide, transfer 22, after 96 hours of culture, Expt. 2 (repeat), Table 58): 4.22 g/L
Residual glucose concentration [2]: 12.6 g/L
Residual glucose concentration (50 nM peptide, transfer 22, after 96 hours of culture, Expt. 2 (repeat), Table 45): 40.2 g/L
Butanol concentration [3]: 6.90 g/L
Butanol productivity [3]: 0.07 g butanol/L-h
Butanol yield [3]: 0.11 g butanol/g/glucose
Butanol concentration (50 nM peptide, transfer 24, after 96 hours of culture, Expt. 2 (repeat), Table 58): 1.87 g/L
Residual glucose concentration [3]: 43.2 g/L
Residual glucose concentration (50 nM peptide, transfer 24, after 96 hours of culture, Expt. 2 (repeat), Table 45): 0.0 g/L
Butanol concentration [4]: 1.78 g/L
Butanol productivity [4]: 0.02 g butanol/L-h
Butanol yield [4]: 0.03 g butanol/g/glucose
Butanol concentration (100 nM peptide, transfer 1, after 96 hours of culture, Expt. 2 (repeat), Table 58): 1.19 g/L
Residual glucose concentration [4]: 48.5 g/L
Residual glucose concentration (100 nM peptide, transfer 1, after 96 hours of culture, Expt. 2 (repeat), Table 45): 55.8 g/L
Butanol concentration [5]: 7.17 g/L
Butanol productivity [5]: 0.07 g butanol/L-h
Butanol yield [5]: 0.12 g butanol/g/glucose
Butanol concentration (100 nM peptide, transfer 4, after 96 hours of culture, Expt. 2 (repeat), Table 58): 2.12 g/L
Residual glucose concentration [5]: 0.0 g/L
Residual glucose concentration (100 nM peptide, transfer 4, after 96 hours of culture, Expt. 2 (repeat), Table 45): 49.9 g/L
Butanol concentration [6]: 5.62 g/L
Butanol productivity [6]: 0.06 g butanol/L-h
Butanol yield [6]: 0.09 g butanol/g/glucose
Butanol concentration (100 nM peptide, transfer 7, after 96 hours of culture, Expt. 2 (repeat), Table 58): 2.11 g/L
Residual glucose concentration [6]: 0.0 g/L
Residual glucose concentration (100 nM peptide, transfer 7, after 96 hours of culture, Expt. 2 (repeat), Table 45): 49.4 g/L
Butanol concentration [7]: 7.91 g/L
Butanol productivity [7]: 0.08 g butanol/L-h
Butanol yield [7]: 0.13 g butanol/g/glucose
Butanol concentration (100 nM peptide, transfer 10, after 96 hours of culture, Expt. 2 (repeat), Table 58): 2.07 g/L
Residual glucose concentration [7]: 0.1 g/L
Residual glucose concentration (100 nM peptide, transfer 10, after 96 hours of culture, Expt. 2 (repeat), Table 45): 51.2 g/L
Butanol concentration [8]: 6.37 g/L
Butanol productivity [8]: 0.07 g butanol/L-h
Butanol yield [8]: 0.11 g butanol/g/glucose
Butanol concentration (100 nM peptide, transfer 13, after 96 hours of culture, Expt. 2 (repeat), Table 58): 1.54 g/L
Residual glucose concentration [8]: 0.1 g/L
Residual glucose concentration (100 nM peptide, transfer 13, after 96 hours of culture, Expt. 2 (repeat), Table 45): 49.7 g/L
Butanol concentration [9]: 7.11 g/L
Butanol productivity [9]: 0.07 g butanol/L-h
Butanol yield [9]: 0.12 g butanol/g/glucose
Butanol concentration (100 nM peptide, transfer 16, after 96 hours of culture, Expt. 2 (repeat), Table 58): 5.68 g/L
Residual glucose concentration [9]: 0.1 g/L
Residual glucose concentration (100 nM peptide, transfer 16, after 96 hours of culture, Expt. 2 (repeat), Table 45): 0.0 g/L
Butanol concentration [10]: 5.55 g/L
Butanol productivity [10]: 0.06 g butanol/L-h
Butanol yield [10]: 0.09 g butanol/g/glucose
Butanol concentration (100 nM peptide, transfer 19, after 96 hours of culture, Expt. 2 (repeat), Table 58): 2.61 g/L
Residual glucose concentration [10]: 0.0 g/L
Residual glucose concentration (100 nM peptide, transfer 19, after 96 hours of culture, Expt. 2 (repeat), Table 45): 0.0 g/L
Butanol concentration [11]: 13.86 g/L
Butanol productivity [11]: 0.14 g butanol/L-h
Butanol yield [11]: 0.23 g butanol/g/glucose
Butanol concentration (100 nM peptide, transfer 22, after 96 hours of culture, Expt. 2 (repeat), Table 58): 3.41 g/L
Residual glucose concentration [11]: 0.6 g/L
Residual glucose concentration (100 nM peptide, transfer 22, after 96 hours of culture, Expt. 2 (repeat), Table 45): 0.1 g/L
Butanol concentration [12]: 7.20 g/L
Butanol productivity [12]: 0.07 g butanol/L-h
Butanol yield [12]: 0.12 g butanol/g/glucose
Butanol concentration (100 nM peptide, transfer 24, after 96 hours of culture, Expt. 2 (repeat), Table 58): 3.29 g/L
Residual glucose concentration [12]: 0.1 g/L
Residual glucose concentration (100 nM peptide, transfer 24, after 96 hours of culture, Expt. 2 (repeat), Table 45): 0.1 g/L
Increase in butanol yield (BP1106213, batch cultures (summary of findings)): more than 50%
Transfers over which butanol production was enhanced (BP1106213, sequential batch cultures (summary of findings)): transfer 4 through transfer 16
Butanol productivity [13]: 0.12 g butanol/1-hour
Butanol yield [13]: 0.20 g butanol/g glucose
Butanol yield and productivity greater than untreated control [13]: more than 50%
Effect on butanol production versus untreated control (BP1106213 first experiment, 100 nM): generally resulted in decreased butanol production, or no difference from the untreated control
Glucose consumption (BP1106213 first experiment, all treated and untreated cultures, transfer 4 through transfer 19): ~100%
Effect on butanol production versus untreated control (BP1106213 repeated (second) experiment, on the whole): inhibit butanol production
Increase in butanol over untreated control (SEQ ID NO: 144 first experiment, 25 nM, transfer 4): 31%
Increase in butanol over untreated control (SEQ ID NO: 144 first experiment, 25 nM, transfer 10): 57%
Increase in butanol over untreated control (SEQ ID NO: 144 first experiment, 25 nM, transfer 16): 21%
Increase in butanol over untreated control (SEQ ID NO: 144 first experiment, 50 nM, transfer 4): 25%
Increase in butanol over untreated control (SEQ ID NO: 144 first experiment, 50 nM, transfer 10): 46%
Increase in butanol over untreated control (SEQ ID NO: 144 first experiment, 50 nM, transfer 16): 35%
Increase in butanol over untreated control (SEQ ID NO: 144 second experiment, 25 nM, transfer 13): 283%
Increase in butanol over untreated control (SEQ ID NO: 144 second experiment, 25 nM, transfer 16): 10%
Increase in butanol over untreated control (SEQ ID NO: 144 second experiment, 50 nM, transfer 13): 85%
Effect on differentiation and butanol production (some sequential cultures): inducer of differentiation and butanol production
